Measurements as given in patent US20180155757A1, “IDENTIFICATION OF BACTERIA THAT ARE RESISTANT TO CARBAPENEMS BY MEMBRANE IMPERVIOUSNESS” (BIOMÉRIEUX, priority 2015, published 2018).
Read-outs that look alike come from different tables or passages of the source.

How the values were obtained:
Assay in all cases: Etest MIC of indicator carbapenems on MH II agar without/with PMBN
Type in all cases: cell-based
[1] = test system: K. pneumoniae 1204034
Experimental: (§1) The determinations of antibiotic MIC were carried out on solid culture media with the Etest® method. To do this, Etest® strips (bioMérieux, France) were used: • Etest® Imipenem IM 32, and • Etest® Ertapenem ETP 32, and also solid culture media, differing from one another by virtue of their non-inhibitory concentrations of PMBN.
(§2) These solid culture media are prepared in Petri dishes (0=145 mm; V=50 ml) on a base of MH II Agar (Becton Dickinson®, United States), more or less supplemented with PMBN. The PMBN concentrations range from 0 up to concentrations equivalent to one fifth of the MIC of PMBN (⅕ MICPMBN).
(§3) Using a swab and the Retro C80™ rota-plater (bioMérieux, France), the culture media were inoculated with the bacteria, originating from an inoculum of 0.5 McFarland, prepared in 0.85% NaCl solution from colonies subcultured the day before on MH II agar.
(§4) The various Etest® strips are then deposited on the surface of the culture media. After 16 to 20 hours of incubation at 35° C., the MICS were read.
(§5) To do this, imipenem and ertapenem were used as indicator carbapenems. Non-inhibitory concentrations of PMBN, equivalent to concentrations of one tenth ( 1/10), one eighth (⅛) and one fifth (⅕) of the MIC of PMBN, were applied.
(§6) In the light of the MICPMBN values previously identified, very predominantly much higher than 300 μg/ml, the following standard concentrations were retained and applied to the bacterial strains to be tested: 50, 100, 150, 200 and 300 μg/ml.
(§7) By way of indicator carbapenems according to the invention, in addition to imipenem (IM) and ertapenem (ETP), meropenem (MP) was also tested. Like the other two antibiotics, meropenem was used in the form of Etest® strips (Etest® Meropenem MP 32 from the company bioMérieux, France).
(§8) The methods used to prepare the new culture media and to carry out the antibiotic-sensitivity tests are identical to those described above.

[2] = test system: E. coli 1204043
Experimental: as §1, §2, §3, §4, §5, §6, §7, §8

[3] = test system: E. cloacae 9402034
Experimental: as §1, §2, §3, §4, §5, §6, §7, §8

[4] = test system: E. aerogenes 9306071
Experimental: as §1, §2, §3, §4, §5, §6, §7, §8

[5] = test system: E. aerogenes 9203076
Experimental: as §1, §2, §3, §4, §5, §6, §7, §8

SMILES: C[C@@H](O)[C@H]1C(=O)N2C(C(=O)O)=C(S[C@@H]3CN[C@H](C(=O)Nc4cccc(C(=O)O)c4)C3)[C@H](C)[C@H]12 [ETP, ertapenem]
- MIC ([1]; K. pneumoniae 1204034, [PMBN] 0, Table 3): 64 µg/mL
- MIC ([1]; K. pneumoniae 1204034, [PMBN] MIC/5): 4 µg/mL
- MIC ([1]; K. pneumoniae 1204034, [PMBN] MIC/8): 4 µg/mL
- MIC ([1]; K. pneumoniae 1204034, [PMBN] MIC/10): 8 µg/mL
- MIC ([1]; Klebsiella pneumoniae, 1204034, K. pneumoniae 1204034 (porin−), [PMBN] 0, Table 4, read-out: MIC): > 32 µg/mL
- MIC ([1]; Klebsiella pneumoniae, 1204034, K. pneumoniae 1204034 (porin−), [PMBN] 150 μg/ml, Table 4, read-out: MIC): 1.5 µg/mL
- MIC ([1]; Klebsiella pneumoniae, 1204034, K. pneumoniae 1204034 (porin−), [PMBN] 200 μg/ml, Table 4, read-out: MIC): 1 µg/mL
- MIC ([2]; E. coli 1204043 (membrane impermeability), [PMBN] 0, Table 4a, in µg/mL): >32
- MIC ([2]; E. coli 1204043 (membrane impermeability), [PMBN] 100, Table 4a, in µg/mL): 6
- MIC ([2]; E. coli 1204043 (membrane impermeability), [PMBN] 200, Table 4a, in µg/mL): 2-4
- MIC ([2]; E. coli 1204043 (membrane impermeability), [PMBN] 300, Table 4a, in µg/mL): 1.5
- MIC ([2]; E. coli 1204043, [PMBN] 0, Table 3, in µg/mL): 32
- MIC ([2]; E. coli 1204043, [PMBN] MIC/5, in µg/mL): 1
- MIC ([2]; E. coli 1204043, [PMBN] MIC/8, in µg/mL): 2
- MIC ([2]; E. coli 1204043, [PMBN] MIC/10, in µg/mL): 1
- MIC ([2]; Escherichia coli, 1204043, E. coli 1204043 (porin−), [PMBN] 0, Table 4, read-out: MIC): > 32 µg/mL
- MIC ([2]; Escherichia coli, 1204043, E. coli 1204043 (porin−), [PMBN] 150 μg/ml, Table 4, read-out: MIC): 0.38 µg/mL
- MIC ([2]; Escherichia coli, 1204043, E. coli 1204043 (porin−), [PMBN] 200 μg/ml, Table 4, read-out: MIC): 0.19 µg/mL
- MIC ([3]; E. cloacae 9402034 (membrane impermeability), [PMBN] 0, Table 4a): > 32 µg/mL
- MIC ([3]; E. cloacae 9402034 (membrane impermeability), [PMBN] 100, Table 4a): > 32 µg/mL
- MIC ([3]; E. cloacae 9402034 (membrane impermeability), [PMBN] 200, Table 4a): 12 µg/mL
- MIC ([3]; E. cloacae 9402034 (membrane impermeability), [PMBN] 300, Table 4a): 12 µg/mL
- MIC ([3]; E. cloacae 9402034, [PMBN] 0, Table 3): 64 µg/mL
- MIC ([3]; E. cloacae 9402034, [PMBN] MIC/5): 16 µg/mL
- MIC ([3]; E. cloacae 9402034, [PMBN] MIC/8): 16 µg/mL
- MIC ([3]; E. cloacae 9402034, [PMBN] MIC/10): 16 µg/mL
- MIC ([4]; E. aerogenes 9306071 (membrane impermeability), [PMBN] 0, Table 4a): > 32 µg/mL
- MIC ([4]; E. aerogenes 9306071 (membrane impermeability), [PMBN] 100, Table 4a): 12 µg/mL
- MIC ([4]; E. aerogenes 9306071 (membrane impermeability), [PMBN] 200, Table 4a): 8 µg/mL
- MIC ([4]; E. aerogenes 9306071 (membrane impermeability), [PMBN] 300, Table 4a): 4 µg/mL
- MIC ([4]; E. aerogenes 9306071, [PMBN] 0, Table 3): 32 µg/mL
- MIC ([4]; E. aerogenes 9306071, [PMBN] MIC/5): 4 µg/mL
- MIC ([4]; E. aerogenes 9306071, [PMBN] MIC/8): 4 µg/mL
- MIC ([4]; E. aerogenes 9306071, [PMBN] MIC/10): 4 µg/mL
- MIC ([5]; E. aerogenes 9203076 (membrane impermeability), [PMBN] 0, Table 4a, in µg/mL): >32
- MIC ([5]; E. aerogenes 9203076 (membrane impermeability), [PMBN] 100, Table 4a, in µg/mL): 16
- MIC ([5]; E. aerogenes 9203076 (membrane impermeability), [PMBN] 200, Table 4a, in µg/mL): 12
- MIC ([5]; E. aerogenes 9203076 (membrane impermeability), [PMBN] 300, Table 4a, in µg/mL): 4
- MIC ([5]; E. aerogenes 9203076, [PMBN] 0, Table 3, in µg/mL): 32
- MIC ([5]; E. aerogenes 9203076, [PMBN] MIC/5, in µg/mL): 2
- MIC ([5]; E. aerogenes 9203076, [PMBN] MIC/8, in µg/mL): 4
- MIC ([5]; E. aerogenes 9203076, [PMBN] MIC/10, in µg/mL): 4
- MIC ([5]; Klebsiella aerogenes, 9203076, E. aerogenes 9203076 (porin−), [PMBN] 0, Table 4, read-out: MIC): 24 µg/mL
- MIC ([5]; Klebsiella aerogenes, 9203076, E. aerogenes 9203076 (porin−), [PMBN] 150 μg/ml, Table 4, read-out: MIC): 3 µg/mL
- MIC ([5]; Klebsiella aerogenes, 9203076, E. aerogenes 9203076 (porin−), [PMBN] 200 μg/ml, Table 4, read-out: MIC): 1.5 µg/mL
